Test results as given in US12213984B2, “Immunoregulatory agent” (KYUSHU UNIVERSITY, NATIONAL UNIVERSITY CORPORATION, priority 2015, dated 2025).

How the values were obtained:
[1] = test system: inflammatory cells infiltrating into the conjunctiva; test: ragweed pollen-induced conjunctivitis model in Sult2B1b gene knockout mice, application to the eyes; format: in vivo, mouse; conditions: applied into the eyes before and after topical challenge
Experimental: An examination was performed on conjunctivitis models induced by sensitizing Sult2B1b gene hetero-type mice (+/−) and Sult2B1b gene knockout mice (−/−) with ragweed pollen and topically challenged with the same antigen at 10 and 12 days later. The eyeball section of each category of the mice was subjected to hematoxylin-eosin (HE) staining and observed using an optical microscope. Thereafter, the Sult2B1b gene knockout mice (−/−) were exposed to ragweed pollen, and cholesterol 3-sulfate was applied into the eyes of the mice before and after the topical challenge with ragweed pollen. […] As a control, a mouse for whom only a vehicle was applied into its eyes was used.

[2] = biological target: T1, binding of the DHR-2 domain of DOCK2 to Rac (Homo sapiens, UniProt Q92608); test: pull-down assay using GST-Rac beads, binding of DOCK2 DHR-2 to Rac; conditions: 150 μM
T1 construct: 1 μg of a protein composed of the lobe B and the lobe C of the DHR-2 domain of DOCK2; made in house; host or cells: E. coli Arctic express DE3 (DOCK2 fragment); E. coli BL21 DE3 (GST-Rac)
T1 sequence (Q92608 1196-1622): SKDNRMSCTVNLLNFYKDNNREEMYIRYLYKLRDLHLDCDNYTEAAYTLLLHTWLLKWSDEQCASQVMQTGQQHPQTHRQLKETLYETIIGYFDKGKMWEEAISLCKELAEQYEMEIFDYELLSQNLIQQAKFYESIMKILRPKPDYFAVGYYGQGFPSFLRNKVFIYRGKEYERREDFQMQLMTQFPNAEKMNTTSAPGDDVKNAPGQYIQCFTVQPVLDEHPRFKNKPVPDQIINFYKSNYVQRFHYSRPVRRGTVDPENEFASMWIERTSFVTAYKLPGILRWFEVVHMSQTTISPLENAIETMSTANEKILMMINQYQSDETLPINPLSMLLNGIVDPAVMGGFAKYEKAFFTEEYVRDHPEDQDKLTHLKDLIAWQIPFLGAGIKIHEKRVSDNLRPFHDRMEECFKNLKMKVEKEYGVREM

[3] = biological target: T2, DOCK2DHR-2 (lobe B and lobe C of the DHR-2 domain of DOCK2) (Homo sapiens, UniProt Q92608); test: in-vitro GEF assay, Rac activation by DOCK2 DHR-2 domain with various steroid compounds (Experimental Example 2); format: biochemical; conditions: IC50 against the Rac activation by DOCK2DHR-2, Experimental Example 2, Table 1
T2 construct: polypeptide fragments corresponding to a DHR-2 domain including the lobe B and the lobe C of DOCK2; Histidine-SUMO (N); made in house; host or cells: E. coli Arctic express DE3 (pET28a); Rac in E. coli BL21 DE3 (pGEX-6P-1)
T2 sequence (Q92608 1196-1622): T1 sequence (Q92608 1196-1622)
Experimental: An examination was performed using various steroid compounds to test their effects on the Rac activation induced by proteins composed of the lobe B and the lobe C of the DHR-2 domain of DOCK2.
As the steroid compounds, cholesterol 3-sulfate (hereinafter, referred to as “C3S” in some cases), cholesterol, cholesterol 3-acetate (hereinafter, referred to as “C3A” in some cases), pregnenolone 3-sulfate (hereinafter, referred to as “PREG3S” in some cases), dehydroepiandrosterone (hereinafter, referred to as “DHEA” in some cases), dehydroepiandrosterone 3-sulfate (hereinafter, referred to as “DHEA3S” in some cases), estrone 3-sulfate (hereinafter, referred to as “Estrone3S” in some cases), estriol 3-sulfate (hereinafter, referred to as “Estriol3S” in some cases), and estradiol 3-sulfate (hereinafter, referred to as “Estradiol3S” in some cases) were used.
More specifically, a DOCK2-DHR-2 domain protein prepared by the same method as described above was incubated for 20 minutes at room temperature in the presence of various steroid compounds at a predetermined concentration dissolved in DMSO or in the presence of DMSO alone (control) under the shielded condition from light, thereby preparing a pretreated substance of GEF. The concentration of DMSO was adjusted such that it became 3% (1% in the final reaction solution) in all samples. Then, by in-vitro GEF assay in which Rac and Bodipy-FL-GTP prepared by the same method as described above were used, Rac activation by the DHR-2 domain was measured.

[4] = test system: neutrophils derived from the mouse bone marrow; test: neutrophil migration assay 2 (EZ-TAXIScan, compound added to the fMLP source); format: cell-based; conditions: 150 μM added to well with 3 μM fMLP, no pretreatment
Experimental: An examination was performed about the influence of cholesterol 3-sulfate on the migration speed of neutrophils when the cells and the chemical migration factor (fMLP) are added to the same well without pretreating the cells. […] Phase-contrast micrographs were obtained for 40 minutes at an interval of 30 seconds and analyzed by the same method as described above. (a) to (c) of FIG. 12 are graphs and photographs showing the experiment results.

`CC(C)CCC[C@@H](C)[C@H]1CC[C@H]2[C@@H]3CC=C4C[C@@H](OS(=O)(=O)O)CC[C@]4(C)[C@H]3CC[C@]12C` [C3S, cholesterol 3-sulfate] was tested, and the “infiltration of inflammatory cells into the conjunctiva in response to ragweed pollen” value [1] was “further inhibited”, the “inhibition of binding of DOCK2 DHR-2 to GST-Rac (Western blotting)” value [2] was “specifically inhibits the binding of DHR-2 to Rac” and the IC50 [3] was 2000 nM. For the same compound, the “migration of neutrophils towards fMLP source containing the compound” value [4] was “rapidly stop”.
